Patent publication US9102591B2, “Benzamides” (H. Lundbeck A/S, priority 2012, dated 2015)

These molecules were tested against P2X7 receptor (Homo sapiens (Human), UniProt Q99572) (assay: P2X7 FLIPR assay (BzATP-stimulated calcium fluorescence, antagonist IC50)). Settings: not given.
Format: cell-based
Protocol: This example illustrates representative assays for use in evaluating the test compounds for antagonist activity. Compounds of the present invention were tested in vitro for their ability to act as antagonists to the P2X7receptor. […]
Cells were plated to cell density of approximately 15,000 cells/well in 384-well assay plates (50 μl/well) with 1.5% low serum media (DMEM, 1.5% FBS, 1% L-glut (2 mM), 10 mM HUES, 1% P/S). Cells were plated 24 hours prior to assay. Cells expressing human, rat or mouse P2X7 receptor were assayed in the following manner.
Fluo-4 NW dye mix (Molecular Probes, Inc., Eugene, Oreg., USA) was prepared in buffer (see manufacturer's instructions). Cell plates were removed from the 37° C. incubator, the media discarded and then 30 μL of dye was added to each well. Plates were placed in the 37° C., non-CO2 incubator for 30 minutes and then room temperature for 30 minutes.
Compound mixtures (A) were added to assay plates containing cells and placed at room temperature for 30 minutes, then BzATP (B) was added. Fluorescence was read using the Tetra FLIPR® (Molecular Devices, Inc., Sunnyvale, Calif., USA) and IC50 values were calculated by standard methods to determine antagonist activity.

P2X7 receptor, sequence (Q99572 whole entry): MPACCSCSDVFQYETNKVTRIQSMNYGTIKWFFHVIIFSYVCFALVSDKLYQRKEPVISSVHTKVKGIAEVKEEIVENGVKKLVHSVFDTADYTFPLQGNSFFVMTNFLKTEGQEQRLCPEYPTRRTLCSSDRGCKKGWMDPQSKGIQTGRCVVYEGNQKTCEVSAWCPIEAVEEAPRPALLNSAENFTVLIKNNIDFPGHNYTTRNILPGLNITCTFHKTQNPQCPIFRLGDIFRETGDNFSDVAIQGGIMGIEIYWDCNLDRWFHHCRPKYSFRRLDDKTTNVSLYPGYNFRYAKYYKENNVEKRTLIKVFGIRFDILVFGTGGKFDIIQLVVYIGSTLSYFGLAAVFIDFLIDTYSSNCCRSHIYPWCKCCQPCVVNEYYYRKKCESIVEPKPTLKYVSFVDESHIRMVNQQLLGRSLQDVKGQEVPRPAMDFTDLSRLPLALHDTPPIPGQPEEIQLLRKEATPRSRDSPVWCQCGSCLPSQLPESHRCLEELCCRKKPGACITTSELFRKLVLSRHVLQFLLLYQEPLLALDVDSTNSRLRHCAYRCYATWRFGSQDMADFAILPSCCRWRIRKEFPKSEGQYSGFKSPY

| Compound | IC50 [nM] |
| --- | --- |
| O=C(NCC(CC1CC1)c1ccc(C(F)(F)F)nc1)c1c(F)cccc1Cl (single isomer, unassigned; (+)) [(+)2-chloro-N-[3-cyclopropyl-2-[6-(trifluoromethyl)-3-pyridy] [(+)2-chloro-N-[3-cyclopropyl-2-[6-(trifluoromethyl)-3-pyridyl]propyl]-6-fluoro-benzamide] | 50 |
| CC(CNC(=O)c1cccc(F)c1Cl)(CC1CC1)c1cnc(C(F)(F)F)nc1 (single isomer, unassigned; (+)) [(+)2-chloro-N-[3-cyclopropyl-2-methyl-2-[2-(trifluoromethyl)] [(+)2-chloro-N-[3-cyclopropyl-2-methyl-2-[2-(trifluoromethyl)pyrimidin-5-yl]propyl]-3-fluoro-benzamide] | 360 |
| CC(CNC(=O)c1ccccc1Cl)(CC1CC1)c1cnc(C(F)(F)F)nc1 (single isomer, unassigned; (+)) [(+)2-chloro-N-[3-cyclopropyl-2-methyl-2-[2-(trifluoromethyl)] [(+)2-chloro-N-[3-cyclopropyl-2-methyl-2-[2-(trifluoromethyl)pyrimidin-5-yl]propyl]benzamide] | 460 |
| O=C(NCC(CC1CC1)c1ccc(C(F)(F)F)nc1)c1c(F)cccc1F (single isomer, unassigned; (+)) [(+)N-[3-cyclopropyl-2-[6-(trifluoromethyl)-3-pyridyl]propyl]] [(+)N-[3-cyclopropyl-2-[6-(trifluoromethyl)-3-pyridyl]propyl]-2,6-difluoro-benzamide] | 740 |
| Cc1ncc(C(CNC(=O)c2cccc(Cl)c2Cl)C2CCOCC2)cn1 (single isomer, unassigned; (-)) [(−)2,3-dichloro-N-[2-(2-methylpyrimidin-5-yl)-2-tetrahydropy] [(−)2,3-dichloro-N-[2-(2-methylpyrimidin-5-yl)-2-tetrahydropyran-4-yl-ethyl]benzamide] | 58 |
| Cc1ncc(C(CNC(=O)c2cccc(Cl)c2Cl)CC2(C(F)(F)F)CC2)cn1 (single isomer, unassigned; (-)) [(−)2,3-dichloro-N-[2-(2-methylpyrimidin-5-yl)-3-[1-(trifluor] [(−)2,3-dichloro-N-[2-(2-methylpyrimidin-5-yl)-3-[1-(trifluoromethyl)cyclopropyl]propyl]benzamide] | 64 |
| O=C(NCC(CC1(C(F)(F)F)CC1)c1cnc(C(F)(F)F)nc1)c1cccc(Cl)c1Cl (single isomer, unassigned; (-)) [(−)2,3-dichloro-N-[3-[1-(trifluoromethyl)cyclopropyl]-2-[2-(] [(−)2,3-dichloro-N-[3-[1-(trifluoromethyl)cyclopropyl]-2-[2-(trifluoromethyl)pyrimidin-5-yl]propyl]benzamide] | 21 |
| O=C(NCC(CC1(C(F)(F)F)CC1)c1ccc(C(F)(F)F)nc1)c1cccc(Cl)c1Cl (single isomer, unassigned; (-)) [(−)2,3-dichloro-N-[3-[1-(trifluoromethyl)cyclopropyl]-2-[6-(] [(−)2,3-dichloro-N-[3-[1-(trifluoromethyl)cyclopropyl]-2-[6-(trifluoromethyl)-3-pyridyl]propyl]benzamide] | 25 |
| CC(C)(O)c1ccc(C(CNC(=O)c2cccc(Cl)c2Cl)CC2CC2)cn1 (single isomer, unassigned; (-)) [(−)2,3-dichloro-N-[3-cyclopropyl-2-[6-(1-hydroxy-1-methyl-et] [(−)2,3-dichloro-N-[3-cyclopropyl-2-[6-(1-hydroxy-1-methyl-ethyl)-3-pyridyl]propyl]benzamide] | 30 |
| O=C(NCC(c1ccccc1)c1ccc(C(F)(F)F)nc1)c1c(Cl)cccc1Cl (single isomer, unassigned; (-)) [(−)2,6-dichloro-N-[2-phenyl-2-[6-(trifluoromethyl)-3-pyridyl] [(−)2,6-dichloro-N-[2-phenyl-2-[6-(trifluoromethyl)-3-pyridyl]ethyl]benzamide] | 18 |

Next, values leading:

| IC50 [nM] | Compound |
| --- | --- |
| 11 | O=C(NCC(c1cnc(C(F)(F)F)nc1)C1CCOCC1)c1cccc(Cl)c1Cl (single isomer, unassigned; (-)) [(−)2,3-dichloro-N-[2-tetrahydropyran-4-yl-2-[2-(trifluoromethyl)pyrimidin-5-yl]ethyl]benzamide] |
| 9.4 | O=C(NCC(c1ccc(F)cc1)c1ccc(C(F)(F)F)nc1)c1cccc(Cl)c1Cl (single isomer, unassigned; (-)) [(−)2,3-dichloro-N-[2-(4-fluorophenyl)-2-[6-(trifluoromethyl)] [(−)2,3-dichloro-N-[2-(4-fluorophenyl)-2-[6-(trifluoromethyl)-3-pyridyl]ethyl]benzamide] |
| 9 | COc1cccc(C(=O)NCC(CC2CC2)c2cnc(C(F)(F)F)nc2)c1C (single isomer, unassigned; (+)) [(+)N-[3-cyclopropyl-2-[2-(trifluoromethyl)pyrimidin-5-yl]pro] [(+)N-[3-cyclopropyl-2-[2-(trifluoromethyl)pyrimidin-5-yl]propyl]-3-methoxy-2-methyl-benzamide] |
| 4.3 | O=C(NCC(c1cnc(C(F)(F)F)nc1)C1CCC(F)(F)CC1)c1cccc(Cl)c1Cl (single isomer, unassigned; (-)) [(−)2,3-dichloro-N-[2-(4,4-difluorocyclohexyl)-2-[2-(trifluor] [(−)2,3-dichloro-N-[2-(4,4-difluorocyclohexyl)-2-[2-(trifluoromethyl)pyrimidin-5-yl]ethyl]benzamide] |
| 1.9 | O=C(NCC(CC1CC1)c1cnc(C(F)F)nc1)c1cccc(Cl)c1Cl (single isomer, unassigned; (-)) [(−)2,3-dichloro-N-[3-cyclopropyl-2-[2-(difluoromethyl)pyrimi] [(−)2,3-dichloro-N-[3-cyclopropyl-2-[2-(difluoromethyl)pyrimidin-5-yl]propyl]benzamide] |
| 1.2 | O=C(NCC(c1ccc(F)cc1)c1cnc(C(F)(F)F)nc1)c1cccc(Cl)c1Cl (single isomer, unassigned; (-)) [(−)2,3-dichloro-N-[2-(4-fluorophenyl)-2-[2-(trifluoromethyl)] [(−)2,3-dichloro-N-[2-(4-fluorophenyl)-2-[2-(trifluoromethyl)pyrimidin-5-yl]ethyl]benzamide] |
| 0.86 | O=C(NCC(CC1CC1)c1cnc(C(F)(F)F)nc1)c1cccc(Cl)c1Cl (single isomer, unassigned; (-)) [(−)2,3-dichloro-N-[3-cyclopropyl-2-[2-(trifluoromethyl)pyrim] [(−)2,3-dichloro-N-[3-cyclopropyl-2-[2-(trifluoromethyl)pyrimidin-5-yl]propyl]benzamide] |
| 0.31 | O=C(NCC(CC1CC1)c1ccc(C(F)(F)F)nc1)c1cccc(Cl)c1Cl (single isomer, unassigned; (-)) [(−)2,3-dichloro-N-[3-cyclopropyl-2-[6-(trifluoromethyl)-3-py] [(−)2,3-dichloro-N-[3-cyclopropyl-2-[6-(trifluoromethyl)-3-pyridyl]propyl]benzamide] |

Same assay, conditions: listed as (+)2-chloro-N-[3-cyclopropyl-2-(6-fluoro-3-pyridyl)propyl]benzamide

| IC50 [nM] | Compound |
| --- | --- |
| 510 | O=C(NCC(CC1CC1)c1ccc(F)nc1)c1ccccc1Cl (single isomer, unassigned; (+)) [Example 4w, (+)-2-chloro-N-(3-cyclopropyl-2-(6-fluoropyridin-3-A)propyl)benzamide] |

Same assay, conditions: listed as (+)2-chloro-N-[3-cyclopropyl-2-[6-(trifluoromethyl)-3-pyridyl]propyl]benzamide

| IC50 [nM] | Compound |
| --- | --- |
| 63 | O=C(NCC(CC1CC1)c1ccc(C(F)(F)F)nc1)c1ccccc1Cl (single isomer, unassigned; (+)) [Example 4a, (+)-2-Chloro-N-[3-cyclopropyl-2-[6-(tiifluoromethyl)-3-pyridyl]propyl]benzamide] |
